Measured values as given in PubChem BioAssay AID248 (DTP/NCI, 2004).
Values joined by “and” are separate entries in the source; they are usually repeats but may differ in a detail not shown here. Identical values can stand only once. Toxic doses and inconclusive results are not listed.

Tested on: L1210 leukemia ip in BDF1 mice, survival T/C
Experiment: NCI In Vivo Anticancer Drug Screen. Data for tumor model L1210 Leukemia (intraperitoneal) in B6D2F1 (BDF1) mice
Details: endpoint: mean survival time, higher = longer survival
Outline: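 Tumor was transplanted into mice, which were then dosed with test compound or vehicle alone. Survival was recorded for each group, and the treated figure was expressed relative to the control figure.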

[1] = dose: 75.0 mg/kg/injection, schedule: Q01DX001 (ip), vehicle: saline
[2] = dose: 150.0 mg/kg/injection, schedule: Q01DX001 (ip), vehicle: saline
[3] = dose: 300.0 mg/kg/injection, schedule: Q01DX001 (ip), vehicle: saline
[4] = dose: 5.0 mg/kg/injection, schedule: Q01DX001 (ip), vehicle: carboxymethylcellulose (CMC)
[5] = dose: 10.0 mg/kg/injection, schedule: Q01DX001 (ip), vehicle: carboxymethylcellulose (CMC)
[6] = dose: 100.0 mg/kg/injection, schedule: Q01DX009 (ip), vehicle: saline with Tween-80
[7] = dose: 100.0 mg/kg/injection, schedule: Q04DX003 (ip), vehicle: saline
[8] = dose: 200.0 mg/kg/injection, schedule: Q04DX003 (ip), vehicle: saline
[9] = dose: 400.0 mg/kg/injection, schedule: Q04DX003 (ip), vehicle: saline
[10] = dose: 100.0 mg/kg/injection, schedule: Q04DX003 (ip), vehicle: saline with Tween-80
[11] = dose: 200.0 mg/kg/injection, schedule: Q04DX003 (ip), vehicle: saline with Tween-80
[12] = dose: 200.0 mg/kg/injection, schedule: Q01DX009 (ip), vehicle: saline with Tween-80
[13] = dose: 400.0 mg/kg/injection, schedule: Q01DX009 (ip), vehicle: saline with Tween-80
[14] = dose: 100.0 mg/kg/injection, schedule: Q04DX002 (ip), vehicle: saline with Tween-80
[15] = dose: 200.0 mg/kg/injection, schedule: Q04DX002 (ip), vehicle: saline with Tween-80
[16] = dose: 100.0 mg/kg/injection, schedule: Q01DX009 (ip), vehicle: saline
[17] = dose: 200.0 mg/kg/injection, schedule: Q01DX009 (ip), vehicle: saline
[18] = dose: 400.0 mg/kg/injection, schedule: Q01DX009 (ip), vehicle: saline

CCOc1ccc([N+](=O)[O-])cc1N(C)C(C)=O
T/C [1]: 102 % of control | T/C [2]: 102 % of control | T/C [3]: 107 % of control

CNC(=S)N/N=C(/C)CCc1c(C)nn(C(=S)NC)c1C
T/C [4]: 94 % of control | T/C [5]: 91 % of control | T/C (dose: 12.5 mg/kg/injection, schedule: Q01DX009 (ip), vehicle: Klucel (hydroxypropylcellulose) (HPC)): 103 % of control | T/C (dose: 20.0 mg/kg/injection, schedule: Q01DX001 (ip), vehicle: carboxymethylcellulose (CMC)): 89 % of control | T/C (dose: 25.0 mg/kg/injection, schedule: Q01DX009 (ip), vehicle: Klucel (hydroxypropylcellulose) (HPC)): 100 % of control | T/C (dose: 25.0 mg/kg/injection, schedule: Q04DX003 (ip), vehicle: Klucel (hydroxypropylcellulose) (HPC)): 106 % of control | T/C (dose: 40.0 mg/kg/injection, schedule: Q01DX001 (ip), vehicle: carboxymethylcellulose (CMC)): 89 % of control | T/C (dose: 50.0 mg/kg/injection, schedule: Q01DX009 (ip), vehicle: Klucel (hydroxypropylcellulose) (HPC)): 92 % of control | T/C (dose: 50.0 mg/kg/injection, schedule: Q04DX003 (ip), vehicle: Klucel (hydroxypropylcellulose) (HPC)): 100 % of control | T/C (dose: 80.0 mg/kg/injection, schedule: Q01DX001 (ip), vehicle: carboxymethylcellulose (CMC)): 96 % of control | T/C (dose: 100.0 mg/kg/injection, schedule: Q04DX003 (ip), vehicle: Klucel (hydroxypropylcellulose) (HPC)): 92 % of control

CC(=O)NC1CCCC(OC(C)=O)C1 (configuration not stated)
T/C (dose: 50.0 mg/kg/injection, schedule: Q01DX009 (ip), vehicle: saline with Tween-80): 88 % of control | T/C [6]: 91 % of control

C=C(Cl)C(=O)OCC
T/C (dose: 5.0 mg/kg/injection, schedule: Q01DX009 (ip), vehicle: saline): 103 % of control | T/C (dose: 5.0 mg/kg/injection, schedule: Q04DX003 (ip), vehicle: saline with Tween-80): 93 % of control | T/C (dose: 10.0 mg/kg/injection, schedule: Q01DX009 (ip), vehicle: saline): 98 % of control | T/C (dose: 10.0 mg/kg/injection, schedule: Q04DX003 (ip), vehicle: saline with Tween-80): 95 % of control | T/C (dose: 20.0 mg/kg/injection, schedule: Q01DX009 (ip), vehicle: saline): 104 % of control | T/C (dose: 20.0 mg/kg/injection, schedule: Q04DX003 (ip), vehicle: saline with Tween-80): 95 % of control

O=C(Nc1ccc(C2=NCCN2)cc1)c1cc(C(=O)Nc2ccc(C3=NCCN3)cc2)cc([N+](=O)[O-])c1
T/C (dose: 111.0 mg/kg/injection, schedule: Q01DX Z (ip), vehicle: methylcellulose (MC)): 100 % of control | T/C (dose: 167.0 mg/kg/injection, schedule: Q01DX Z (ip), vehicle: methylcellulose (MC)): 104 % of control | T/C (dose: 250.0 mg/kg/injection, schedule: Q01DX Z (ip), vehicle: methylcellulose (MC)): 105 % of control and 207 % of control | T/C (dose: 375.0 mg/kg/injection, schedule: Q01DX Z (ip), vehicle: methylcellulose (MC)): 168 % of control | T/C (dose: 512.0 mg/kg/injection, schedule: Q01DX Z (ip), vehicle: methylcellulose (MC)): 234 % of control | T/C (dose: 768.0 mg/kg/injection, schedule: Q01DX Z (ip), vehicle: methylcellulose (MC)): 268 % of control

O=C1CCCN1
T/C [7]: 92 % of control | T/C [8]: 97 % of control | T/C [9]: 92 % of control

CCOC(=O)c1ccc[n+](CCCl)c1
T/C (dose: 10.0 mg/kg/injection, schedule: Q01DX Z (ip), vehicle: saline): 98 % of control | T/C (dose: 30.0 mg/kg/injection, schedule: Q01DX Z (ip), vehicle: saline): 97 % of control | T/C (dose: 100.0 mg/kg/injection, schedule: Q01DX Z (ip), vehicle: saline): 90 % of control

COc1ccc(C(=O)c2no[n+]([O-])c2C(=O)c2ccc(OC)cc2)cc1
T/C [10]: 90 % of control | T/C [11]: 94 % of control

Cc1cc2c(cn1)C(=O)C=CC2=O
T/C [4]: 94 % of control | T/C [5]: 96 % of control

CN(C)c1ccc(/C=N/NC(=O)Cc2cccc3ccccc23)cc1
T/C [6]: 90 % of control | T/C [12]: 86 % of control | T/C [13]: 86 % of control

N=C([Se])c1c(N)ncn1C1OC(CO)C(O)C1O (configuration not stated)
T/C (dose: 12.5 mg/kg/injection, schedule: Q01DX005 (ip), vehicle: saline): 98 % of control | T/C (dose: 25.0 mg/kg/injection, schedule: Q01DX005 (ip), vehicle: saline): 94 % of control | T/C (dose: 50.0 mg/kg/injection, schedule: Q01DX005 (ip), vehicle: saline): 96 % of control

O=[N+]([O-])C1CCC(C2=CSC3CCCCC3N2)CC1 (configuration not stated)
T/C [14]: 90 % of control | T/C [15]: 101 % of control | T/C (dose: 400.0 mg/kg/injection, schedule: Q04DX002 (ip), vehicle: saline with Tween-80): 116 % of control

c1ccc(-n2nc3c(c2-c2ccc(OCCN4CCCC4)cc2)CCCc2ccccc2-3)cc1
T/C [10]: 88 % of control

Cn1cc(/C=C/C(N)=O)c2nccnc21
T/C (dose: 1.56 mg/kg/injection, schedule: Q01DX009 (ip), vehicle: water): 94 % of control | T/C (dose: 3.12 mg/kg/injection, schedule: Q01DX009 (ip), vehicle: water): 92 % of control | T/C (dose: 6.25 mg/kg/injection, schedule: Q01DX009 (ip), vehicle: water): 107 % of control | T/C (dose: 12.5 mg/kg/injection, schedule: Q01DX009 (ip), vehicle: water): 103 % of control | T/C (dose: 25.0 mg/kg/injection, schedule: Q01DX009 (ip), vehicle: water): 100 % of control and 110 % of control

Cc1cc(C)n(C(=O)Nc2ccccc2)n1
T/C [14]: 105 % of control | T/C [15]: 100 % of control

c1ccc(C[Si](Cc2ccccc2)Cc2ccccc2)cc1
T/C (dose: 100.0 mg/kg/injection, schedule: Q01DX001 (ip), vehicle: saline): 105 % of control | T/C [16]: 88 % of control | T/C (dose: 200.0 mg/kg/injection, schedule: Q01DX001 (ip), vehicle: saline): 90 % of control | T/C [17]: 88 % of control | T/C (dose: 400.0 mg/kg/injection, schedule: Q01DX001 (ip), vehicle: saline): 104 % of control | T/C [18]: 90 % of control

Cc1nc2cccc3ccc4cc5ccccc5c1c4c32
T/C [10]: 89 % of control | T/C [11]: 93 % of control

CCCCCCCC/C=C\CCCCCCCC(=O)OCC1CCCO1 (configuration not stated)
T/C [6]: 95 % of control | T/C [12]: 90 % of control | T/C [13]: 92 % of control

O=c1sc(N=Nc2ccccc2)nn1-c1ccccc1
T/C (dose: 50.0 mg/kg/injection, schedule: Q01DX009 (ip), vehicle: saline): 91 % of control | T/C [16]: 88 % of control | T/C [17]: 93 % of control

O=C(Cc1cccc2ccccc12)OCCBr
T/C (dose: 222.0 mg/kg/injection, schedule: Q01DX Z (ip), vehicle: methylcellulose (MC)): 100 % of control | T/C (dose: 333.0 mg/kg/injection, schedule: Q01DX Z (ip), vehicle: methylcellulose (MC)): 100 % of control | T/C (dose: 500.0 mg/kg/injection, schedule: Q01DX Z (ip), vehicle: methylcellulose (MC)): 96 % of control

Cc1ccc(S(=O)(=O)N/N=C2/C(=N/NS(=O)(=O)c3ccc(C)cc3)c3cccc4cccc2c34)cc1
T/C (dose: 75.0 mg/kg/injection, schedule: Q01DX001 (ip), vehicle: carboxymethylcellulose (CMC)): 91 % of control | T/C (dose: 150.0 mg/kg/injection, schedule: Q01DX001 (ip), vehicle: carboxymethylcellulose (CMC)): 91 % of control | T/C (dose: 300.0 mg/kg/injection, schedule: Q01DX001 (ip), vehicle: carboxymethylcellulose (CMC)): 88 % of control

COC(=O)C1CCC1(C#N)C(=O)OC (configuration not stated)
T/C [16]: 93 % of control | T/C [7]: 98 % of control | T/C [17]: 92 % of control | T/C [8]: 98 % of control | T/C [18]: 109 % of control | T/C [9]: 106 % of control

CS(=O)(=O)Nc1ccccc1OS(C)(=O)=O
T/C [1]: 102 % of control | T/C [2]: 106 % of control | T/C [3]: 106 % of control

CC(=O)NC1C(OC(C)=O)OC(COC(C)=O)C(OC(C)=O)C1OC(C)=O (configuration not stated)
T/C (dose: 100.0 mg/kg/injection, schedule: Q01DX001 (ip), vehicle: saline with Tween-80): 100 % of control | T/C (dose: 200.0 mg/kg/injection, schedule: Q01DX001 (ip), vehicle: saline with Tween-80): 103 % of control | T/C (dose: 400.0 mg/kg/injection, schedule: Q01DX001 (ip), vehicle: saline with Tween-80): 103 % of control

COc1ccc(/C=N\NC(=O)c2ccccc2)cc1
T/C [10]: 102 % of control | T/C [11]: 103 % of control | T/C (dose: 400.0 mg/kg/injection, schedule: Q04DX003 (ip), vehicle: saline with Tween-80): 92 % of control

Nc1nc2c(ncn2-c2cccc(Cl)c2)c(=O)[nH]1
T/C [10]: 95 % of control | T/C [11]: 91 % of control
